Experimental findings from patent publication US20070004660A1, “Synergistic Modulation of Flt3 Kinase Using Alkylquinolines and Alkylquinazolines” (priority 2005, published 2007) are described below.

The target of experiment [1] is T1, isolated kinase domain of the human FLT3 receptor (a.a. 571-993) (Homo sapiens, UniProt P36888).
T1 construct: human FLT3 receptor (a.a. 571-993)
T1 sequence (P36888 571-993): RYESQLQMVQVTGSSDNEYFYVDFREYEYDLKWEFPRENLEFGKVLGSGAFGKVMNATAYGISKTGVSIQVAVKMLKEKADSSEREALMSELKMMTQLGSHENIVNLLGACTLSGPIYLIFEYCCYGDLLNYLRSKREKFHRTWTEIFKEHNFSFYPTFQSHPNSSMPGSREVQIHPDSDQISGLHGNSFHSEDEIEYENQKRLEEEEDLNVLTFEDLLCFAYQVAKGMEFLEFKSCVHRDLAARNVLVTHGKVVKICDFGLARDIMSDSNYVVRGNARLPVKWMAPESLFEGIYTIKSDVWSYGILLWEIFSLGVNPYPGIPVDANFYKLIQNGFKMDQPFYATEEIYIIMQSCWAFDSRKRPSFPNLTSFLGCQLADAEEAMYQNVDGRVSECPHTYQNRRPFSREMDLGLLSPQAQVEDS
Briefly: FLT3 fluorescence polarization kinase assay. The class given is biochemical. Particulars: 150 uM ATP; uncertainty ±10%. How it is done: The FLT3 FP assay utilizes the fluorescein-labeled phosphopeptide and the anti-phosphotyrosine antibody included in the Panvera Phospho-Tyrosine Kinase Kit (Green) supplied by Invitrogen. When FLT3 phosphorylates polyGlu4Tyr, the fluorescein-labeled phosphopeptide is displaced from the anti-phosphotyrosine antibody by the phosphorylated poly Glu4Tyr, thus decreasing the FP value. The FLT3 kinase reaction is incubated at room temperature for 30 minutes under the following conditions: 10 nM FLT3 571-993, 20 ug/mL poly Glu4Tyr, 150 uM ATP, 5 mM MgCl2, 1% compound in DMSO. The kinase reaction is stopped with the addition of EDTA. The fluorescein-labeled phosphopeptide and the anti-phosphotyrosine antibody are added and incubated for 30 minutes at room temperature.
All data points are an average of triplicate samples. Inhibition and IC50 data analysis was done with GraphPad Prism using a non-linear regression fit with a multiparamater, sigmoidal dose-response (variable slope) equation.
A general note: Polarisation of emitted light reports the rotation of a fluorescent probe.

In the next experiment the test system is MV4-11 cells. Description: Inhibition of MV4-11 cell proliferation (CellTiterGlo, 72 h). The class given is cell-based. Particulars: Homo sapiens; 72 h growth inhibition; uncertainty ±20%. How it is done: MV4-11 cells cannot grow and survive without active FLT3ITD.
To measure proliferation inhibition by test compounds, the luciferase based CellTiterGlo reagent (Promega), which quantifies total cell number based on total cellular ATP concentration, was used. Cells are plated at 10,000 cells per well in 100 ul of in RPMI media containing penn/strep, 10% FBS and 1 ng/ml GM-CSF or 1 ng/ml IL-3 for MV4-11 and Baf3 cells respectively.
Compound dilutions or 0.1% DMSO (vehicle control) are added to cells and the cells are allowed to grow for 72 hours at standard cell growth conditions (37° C., 5% CO2). For activity measurements in MV4-11 cells grown in 50% plasma, cells were plated at 10,000 cells per well in a 1:1 mixture of growth media and human plasma (final volume of 100 μL). To measure total cell growth an equal volume of CellTiterGlo reagent was added to each well, according to the manufacturer's instructions, and luminescence was quantified. Total cell growth was quantified as the difference in luminescent counts (relative light units, RLU) of cell number at Day 0 compared to total cell number at Day 3 (72 hours of growth and/or compound treatment). One hundred percent inhibition of growth is defined as an RLU equivalent to the Day 0 reading. Zero percent inhibition was defined as the RLU signal for the DMSO vehicle control at Day 3 of growth. All data points are an average of triplicate samples. […] Inhibition and IC50 data analysis was done with GraphPad Prism using a non-linear regression fit with a multiparamater, sigmoidal dose-response (variable slope) equation.
MV4-11 cells express the FLT3 internal tandem duplication mutation, and thus are entirely dependent upon FLT3 activity for growth. […] In contrast, the Baf3 cell proliferation is driven by the cytokine IL-3 and thus are used as a non-specific toxicity control for test compounds.
On the technique in general: ATP-based viability assays read luminescence as a measure of living cells.

Regarding `CN1CCN(CCCOc2ccc3c(C4CCN(C(=O)Nc5cnc(N6CCCC6)nc5)CC4)ncnc3c2)CC1` [Example 105, 4-{7-[3-(4-Methyl-piperazin-1-yl)-propoxy]-quinazolin-4-yl}-piperidine-1-carboxylic acid (2-pyrrolidin-1-yl-pyrimidin-5-yl)-amide], the IC50 (usually the point on the concentration scale where inhibition reaches its midpoint) in experiment [1] stood at 64 nM; in the experiment with MV4-11 cells, 91 nM.
Turning to `CC(C)Oc1ccc(NC(=O)N2CCC(c3ncnc4cc(N(C)C)ccc34)CC2)cc1` [Example 100, 4-(7-Dimethylamino-quinazolin-4-yl)-piperidine-1-carboxylic acid (4-isopropoxy-phenyl)-amide], the figures for the IC50 (in experiment [1]; in the experiment with MV4-11 cells) were 80 nM and 36 nM, respectively.
Regarding `CC(C)Oc1ccc(NC(=O)N2CCC(c3ncnc4ccc(OCCCN5CCCC5=O)cc34)CC2)cc1` [Example 101, 4-{6-[3-(2-Oxo-pyrrolidin-1-yl)-propoxy]-quinazolin-4-yl}-piperidine-1-carboxylic acid (4-isopropoxy-phenyl)-amide], the IC50 stood at 0.8 nM in experiment [1] and 34 nM in the experiment on MV4-11 cells.
Taken in the same sequence, the figures for `COc1cc2ncnc(C3CCN(CC(=O)Nc4ccc(OC(C)C)cc4)CC3)c2cc1OC` [Example 10, 2-[4-(6,7-Dimethoxy-quinazolin-4-yl)-piperidin-1-yl]-N-(4-isopropoxy-phenyl)-acetamide] were 42 nM and 171 nM.
Regarding `COc1cc2ncnc(C3CCN(C(=O)Nc4ccc(OC(F)F)cc4)CC3)c2cc1OC` [Example 51, 4-(6,7-Dimethoxy-quinazolin-4-yl)-piperidine-1-carboxylic acid (4-difluoromethoxy-phenyl)-amide], the IC50 amounted to 160 nM in experiment [1] and 306 nM with MV4-11 cells.
For `O=C1CCCN1CCOc1ccc2c(C3CCN(C(=O)Nc4cnc(N5CCCC5)nc4)CC3)ncnc2c1` [Example 84, 4-{7-[2-(2-Oxo-pyrrolidin-1-yl)-ethoxy]-quinazolin-4-yl}-piperidine-1-carboxylic acid (2-pyrrolidin-1-yl-pyrimidin-5-yl)-amide], the results for the 50% inhibitory concentration (IC50) (in experiment [1]; in the experiment with MV4-11 cells) were 41 nM and 74 nM, respectively.
Regarding `O=C(Nc1ccc(N2CCOCC2)cc1)N1CCC(c2ncnc3cc(OCCC4CCCCN4)ccc23)CC1` (stereo not drawn) [Example 98, 4-[7-(2-Piperidin-2-yl-ethoxy)-quinazolin-4-yl]-piperidine-1-carboxylic acid (4-morpholin-4-yl-phenyl)-amide], the IC50 in experiment [1] came out at 27 nM; in the experiment on MV4-11 cells, 277 nM.
Take `O=C(Nc1ccc(N2CCOCC2)cc1)N1CCC(c2ncnc3cc(OCCCN4CCCC4)ccc23)CC1` [Example 124, 4-[7-(3-Pyrrolidin-1-yl-propoxy)-quinazolin-4-yl]-piperidine-1-carboxylic acid (4-morpholin-4-yl-phenyl)-amide]: the IC50 in experiment [1] was determined as 21 nM; in the experiment on MV4-11 cells, 47 nM.
Taken in the same sequence, the figures for `CC(C)Oc1ccc(NC(=O)N2CCC(c3ncnc4cc(OCC5CCN(C)CC5)ccc34)CC2)cc1` [Example 93, 4-[7-(1-Methyl-piperidin-4-ylmethoxy)-quinazolin-4-yl]-piperidine-1-carboxylic acid (4-isopropoxy-phenyl)-amide] were 0.2 nM and 9 nM.
Taken in the same sequence, the figures for `O=C(Nc1ccc(N2CCCC2)nc1)N1CCC(c2ncnc3cc(OCCN4CCOCC4)ccc23)CC1` [Example 95, 4-[7-(2-Morpholin-4-yl-ethoxy)-quinazolin-4-yl]-piperidine-1-carboxylic acid (6-pyrrolidin-1-yl-pyridin-3-yl)-amide] were 8 nM and 56 nM.
For `CN1CCN(CCCOc2ccc3c(C4CCN(C(=O)Nc5ccc(OC6CCCC6)nc5)CC4)ncnc3c2)CC1` [Example 82, 4-{7-[3-(4-Methyl-piperazin-1-yl)-propoxy]-quinazolin-4-yl}-piperidine-1-carboxylic acid (6-cyclopentyloxy-pyridin-3-yl)-amide], the IC50 came out at 1 nM in experiment [1] and 18 nM with MV4-11 cells.
As for `CS(=O)(=O)N1CCN(CCCOc2ccc3c(C4CCN(C(=O)Nc5ccc(N6CCOCC6)cc5)CC4)ncnc3c2)CC1` [Example 118, 4-{7-[3-(4-Methanesulfonyl-piperazin-1-yl)-propoxy]-quinazolin-4-yl}-piperidine-1-carboxylic acid (4-morpholin-4-yl-phenyl)-amide], the IC50 in experiment [1] is 8 nM; in the experiment on MV4-11 cells, 90 nM.
On to `O=C1CCCN1CCOc1ccc2c(C3CCN(C(=O)Nc4ccc(N5CCOCC5)nc4)CC3)ncnc2c1` [Example 83, 4-{7-[2-(2-Oxo-pyrrolidin-1-yl)-ethoxy]-quinazolin-4-yl}-piperidine-1-carboxylic acid (6-morpholin-4-yl-pyridin-3-yl)-amide], for which the IC50 in experiment [1] was 20 nM; in the experiment on MV4-11 cells, 112 nM.
The corresponding values for `CC(C)Oc1ccc(NC(=O)N2CCC(c3ncnc4ccc(C#CCO)cc34)CC2)cc1` [Example 12, 4-[6-(3-Hydroxy-prop-1-ynyl)-quinazolin-4-yl]-piperidine-1-carboxylic acid (4-isopropoxy-phenyl)-amide] are 32 nM and 149 nM.
The corresponding values for `CN1CCC(COc2ccc3c(C4CCN(C(=O)Nc5ccc(N6CCCC6)cc5)CC4)ncnc3c2)CC1` [Example 109, 4-[7-(1-Methyl-piperidin-4-ylmethoxy)-quinazolin-4-yl]-piperidine-1-carboxylic acid (4-pyrrolidin-1-yl-phenyl)-amide] are 35 nM and 18 nM.
Taken in the same sequence, the figures for `CN1CCN(CCCOc2ccc3c(C4CCN(C(=O)Nc5ccc(N6CCOCC6)cc5)CC4)ncnc3c2)CC1` [Example 73, 4-{7-[3-(4-Methyl-piperazin-1-yl)-propoxy]-quinazolin-4-yl}-piperidine-1-carboxylic acid (4-morpholin-4-yl-phenyl)-amide] were 3 nM and 40 nM.
Take `CS(=O)(=O)NCCCOc1ccc2c(C3CCN(C(=O)Nc4ccc(N5CCOCC5)nc4)CC3)ncnc2c1` [Example 87, 4-[7-(3-Methanesulfonylamino-propoxy)-quinazolin-4-yl]-piperidine-1-carboxylic acid (6-morpholin-4-yl-pyridin-3-yl)-amide]: the IC50 in experiment [1] was determined as 32 nM; in the experiment with MV4-11 cells, 69 nM.
Turning to `CC(C)Oc1ccc(NC(=O)N2CCC(c3ncnc4cc(N5CCN(C)CC5)ccc34)CC2)cc1` [Example 103, 4-[7-(4-Methyl-piperazin-1-yl)-quinazolin-4-yl]-piperidine-1-carboxylic acid (4-isopropoxy-phenyl)-amide], the IC50 in experiment [1] stood at 1 nM; in the experiment on MV4-11 cells, 25 nM.
As for `CC(C)Oc1ccc(NC(=O)N2CCC(c3ccnc4ccccc34)CC2)cc1` [Example 6, 4-Quinolin-4-yl-piperidine-1-carboxylic acid (4-isopropoxy-phenyl)-amide], the results for the IC50 (in experiment [1]; with MV4-11 cells) were 84 nM and 280 nM, respectively.
With `COc1cc2ncnc(C3CCN(C(=O)NC4CCC(C(C)(C)C)CC4)CC3)c2cc1OC` (stereo not drawn) [Example 54, 4-(6,7-Dimethoxy-quinazolin-4-yl)-piperidine-1-carboxylic acid (4-tert-butyl-cyclohexyl)-amide], the IC50 came out at 170 nM in experiment [1] and 224 nM in the experiment on MV4-11 cells.
Taken in the same sequence, the figures for `CC(C)Oc1ccc(NC(=O)N2CCC(c3ncnc4cc(OCCCNS(C)(=O)=O)ccc34)CC2)cc1` [Example 65, 4-[7-(3-Methanesulfonylamino-propoxy)-quinazolin-4-yl]-piperidine-1-carboxylic acid (4-isopropoxy-phenyl)-amide] were 19 nM and 27 nM.
